Results published in article PMC9367601 (Cancers, 2022).

Biological target: T1, Epidermal Growth Factor Receptor (EGFR), extracellular domain (EGFR-ECD) (Homo sapiens, UniProt P00533)
T1 construct: full-length EGFR in DiscoverX PathHunter enzyme-complementation cells, EGF-stimulated
Test: cell-based
Set-up: DiscoverX PathHunter EGFR dimerization/activation assay, chemiluminescence
Details: for % inhibition @ 10 uM / % inhibition @ 50 uM: inhibitor
Experimental: The inhibition of the EGFR dimerization assay was conducted using the PathHunter kit following the producer instructions and with cetuximab as a positive control. For IC50 determination, the selected compounds were tested at different concentration (range 0.1–100 µM) and the IC50 values were calculated by the four parameters logistic (4-PL) model. Evaluation was based on means from at least four independent experiments. The discovery of orally available small molecules able to impair the EGFR activation targeting the extracellular domain could be of great interest for cancer treatment. To pursue this goal, a suitable high/medium throughput screening method is required. In this respect, a commercially available kit (PathHunter® from DiscoverX©; San Francisco, CA, USA) for the screening of compounds able to prevent EGFR activation (either dimerization or autophosphorylation) has been developed in recent years. This assay measures the chemiluminescent signal produced as a consequence of ligand-induced dimerization/activation of EGFR [16]. Our interest in kinase inhibitors and the readily availability of such kit prompted us to start a campaign for the discovery of small molecules targeting the extracellular domain of EGFR.

T1 sequence (P00533 25-1210): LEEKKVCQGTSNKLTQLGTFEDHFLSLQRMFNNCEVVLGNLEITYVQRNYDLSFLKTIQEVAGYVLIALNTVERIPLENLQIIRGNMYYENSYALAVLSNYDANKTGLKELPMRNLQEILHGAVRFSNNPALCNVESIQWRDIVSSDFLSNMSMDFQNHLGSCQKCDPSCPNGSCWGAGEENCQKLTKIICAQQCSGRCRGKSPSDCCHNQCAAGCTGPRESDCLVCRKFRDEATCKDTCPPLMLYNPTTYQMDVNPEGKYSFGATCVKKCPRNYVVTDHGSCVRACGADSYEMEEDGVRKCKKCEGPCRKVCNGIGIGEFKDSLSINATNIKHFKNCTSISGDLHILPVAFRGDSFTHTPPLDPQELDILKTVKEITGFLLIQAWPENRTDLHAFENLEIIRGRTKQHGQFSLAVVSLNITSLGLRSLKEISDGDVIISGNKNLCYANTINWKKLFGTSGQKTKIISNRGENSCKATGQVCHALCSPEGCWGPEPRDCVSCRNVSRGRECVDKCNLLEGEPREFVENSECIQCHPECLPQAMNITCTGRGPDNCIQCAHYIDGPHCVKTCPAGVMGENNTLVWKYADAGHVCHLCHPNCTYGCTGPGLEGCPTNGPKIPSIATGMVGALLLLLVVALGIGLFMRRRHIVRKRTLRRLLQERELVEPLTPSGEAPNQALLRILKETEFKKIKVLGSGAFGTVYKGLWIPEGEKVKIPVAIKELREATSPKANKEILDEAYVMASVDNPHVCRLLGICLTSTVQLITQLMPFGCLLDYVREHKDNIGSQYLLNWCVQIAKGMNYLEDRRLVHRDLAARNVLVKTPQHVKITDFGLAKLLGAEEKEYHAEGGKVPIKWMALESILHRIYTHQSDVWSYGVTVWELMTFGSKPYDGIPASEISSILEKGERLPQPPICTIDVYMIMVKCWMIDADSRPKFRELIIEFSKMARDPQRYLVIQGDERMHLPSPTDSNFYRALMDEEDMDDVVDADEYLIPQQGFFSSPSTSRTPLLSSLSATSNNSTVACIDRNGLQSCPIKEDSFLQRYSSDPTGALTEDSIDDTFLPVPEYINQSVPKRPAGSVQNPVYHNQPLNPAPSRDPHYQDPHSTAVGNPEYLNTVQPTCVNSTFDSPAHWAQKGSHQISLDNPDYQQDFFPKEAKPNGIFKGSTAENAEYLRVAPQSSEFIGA

| SMILES | inhibition at 10 µM | inhibition at 50 µM | % inhibition @ 10 uM | % inhibition @ 50 uM |
| --- | --- | --- | --- | --- |
| CN(C)CCNc1ccc(F)c2c1C(=O)c1ccccc1C2=O [DSF015] | 39 ± 4% | 48 ± 1% | – | – |
| c1ccc2c(CN3CCOCC3)c3ccccc3c(CN3CCOCC3)c2c1 [DSF006] | 19 ± 1% | 27 ± 4% | – | – |
| COc1cccc(Nc2nc(N(C)C)c3cc(-c4c(Cl)cccc4Cl)c(=O)oc3n2)c1 [DSF033] | 0% | 12 ± 3% | – | – |
| O=C(O)Cc1ccc(S(=O)(=O)Nc2ccccc2)cc1 [DSF081] | 21 ± 5% | 26 ± 1% | – | – |
| COc1cccc(Nc2nc(O)c3cc(-c4ccccc4)c(=O)oc3n2)c1 [DSF036] | 0% | 0% | – | – |
| COc1cccc(Nc2ncc(C(=O)O)c(O)n2)c1 [DSF058] | 12 ± 2% | 5 ± 5% | – | – |
| O=c1oc2ncnc(Nc3cccc(-c4ccccc4)c3)c2cc1-c1c(Cl)cccc1Cl [DSF037] | 12 ± 4% | 40 ± 5% | – | – |
| c1ccc2c(CN3CCCCC3)c3ccccc3c(CN3CCCCC3)c2c1 [DSF007] | 16 ± 4% | 16 ± 4% | – | – |
| COc1ccc2c(C)c(CC(=O)Nc3cccc(C(=O)O)c3)c(=O)oc2c1C [DSF047] | 0% | 0% | – | – |
| Cc1ccc(NC(=O)Nc2ccc(Nc3cc(-c4ccccc4)ncn3)cc2)cc1 [DSF056] | 0% | 22 ± 5% | – | – |
| CN1CCN(c2ncnc3oc(=O)c(-c4c(Cl)cccc4Cl)cc23)CC1 [DSF039] | 0% | 10 ± 2% | – | – |
| CC(=O)c1cccc2cc3c(C(C)=O)cccc3cc12 [DSF002] | 0% | 0% | – | – |
| Cc1cccc(Nc2ncnc3oc(=O)c(-c4c(Cl)cccc4Cl)cc23)c1 [DSF038] | 0% | 24 ± 5% | – | – |
| O=C(NC(=O)c1ccccc1)Nc1cccc(Oc2ncc(Cl)cn2)c1 [DSF061] | 20 ± 4% | 1 ± 1% | – | – |
| Cc1c(CCC(=O)Nc2cccc(C(=O)O)c2)c(=O)oc2nc3oc4c(c3cc12)CCCC4 [DSF049] | 35 ± 2% | 36 ± 3% | – | – |
| FC(F)(F)c1cccc(-c2cc(-c3ccccc3)ncn2)c1 [DSF026] | 0% | 0% | – | – |
| O=C(CN1CCOCC1)Nc1ccc(NC(=O)CN2CCOCC2)c2c1C(=O)c1ccccc1C2=O [DSF018] | 16 ± 3% | 38 ± 5% | – | – |
| O=C(NCc1ccccc1)c1ccc(-c2ccc(-c3ccccc3)cc2O)cc1 [DSF030] | 0% | 0% | – | – |
| CCOC(=O)c1cc2cnc(O)nc2oc1=O [DSF040] | 0% | 0% | – | – |
| O=C(O)c1ccc(NS(=O)(=O)c2ccc(Cl)cc2[N+](=O)[O-])cc1 [DSF084] | 19 ± 2% | 29 ± 3% | – | – |
| CCc1cnc(Oc2cccc(NC(=O)NC(=O)c3ccccc3[N+](=O)[O-])c2)nc1 [DSF066] | 0% | 0% | – | – |
| CC(=O)Nc1ccc(C=C2N=C(c3ccc([N+](=O)[O-])cc3O)OC2=O)cc1 [DSF080] | 11 ± 5% | 28 ± 3% | – | – |

| SMILES | inhibition at 10 µM | inhibition at 50 µM | % inhibition @ 10 uM | % inhibition @ 50 uM |
| --- | --- | --- | --- | --- |
| Cc1cccc(C)c1NS(=O)(=O)c1ccc(CC(=O)O)cc1 [DSF082] | – | – | 16 ± 1% | 19 ± 5% |
| O=C(O)COCC(=O)OCc1cc(O)c2c(c1)C(=O)c1cccc(O)c1C2=O [DSF011] | 9 ± 5% | 39 ± 1% | – | – |
| COc1ccc(/C=C2/N=C(c3ccccc3)OC2=O)cc1 [DSF076] | 25 ± 2% | 18 ± 4% | – | – |
| CC(=O)Nc1ccc(/C=C2/N=C(c3cccnc3Cl)OC2=O)cc1 [DSF078] | 7 ± 1% | 37 ± 4% | – | – |
| Nc1ccc2cc3cc(N)ccc3cc2c1 [DSF001] | 0% | 0% | – | – |
| CC(=O)Nc1ccc(NC(=O)Cc2c(C)c3cc4c5c(oc4c(C)c3oc2=O)CCCC5)cc1 [DSF052] | 41 ± 4% | 49 ± 2% | – | – |
| C=CCOc1cccc2c1C(=O)c1cccc(OCC=C)c1C2=O [DSF014] | 0% | 0% | – | – |
| Cc1ccc([N+](=O)[O-])cc1Nc1nccc(-c2cccnc2)n1 [DSF059] | 0% | 0% | – | – |
| COc1ccc([N+](=O)[O-])c(C2=NC(=Cc3ccc(NC(C)=O)cc3)C(=O)O2)c1 [DSF079] | 3 ± 1% | 41 ± 2% | – | – |
| O=C(CCN1CCOCC1)Nc1ccc(NC(=O)CCN2CCOCC2)c2c1C(=O)c1ccccc1C2=O [DSF021] | 16 ± 4% | 30 ± 5% | – | – |
| Cc1nc(Cl)cc(Nc2ncc(C(=O)O)s2)n1 [DSF060] | 0% | 0% | – | – |
| O=[N+]([O-])c1cc(Cl)ccc1S(=O)(=O)Nc1cccc(Cl)c1 [DSF086] | 0% | 19 ± 4% | – | – |
| CC(=O)n1cc(/C=C2/N=C(c3ccccc3)OC2=O)c2ccccc21 [DSF077] | 7 ± 1% | 39 ± 1% | – | – |
| CSc1cccc(Nc2ccc3cc(-c4cccs4)c(=O)oc3n2)c1 [DSF032] | 0% | 3 ± 5% | – | – |
| O=c1oc2nc(Nc3cccc(-c4ccccc4)c3)nc(O)c2cc1-c1cccc(Br)c1 [DSF041] | 0% | 0% | – | – |
| CCc1cnc(Oc2cccc(NC(=S)NC(=O)c3ccccc3)c2)nc1 [DSF065] | 0% | 22 ± 5% | – | – |
| CCc1cnc(Oc2cccc(NC(=O)NC(=O)c3ccccc3)c2)nc1 [DSF064] | 0% | 0% | – | – |
| CS(=O)(=O)Nc1ccc(NC(=O)c2ccc3c(c2)C(=O)c2c(NCCN4CCNCC4)ccc(NCCN4CCNCC4)c2C3=O)cc1 [DSF010] | 28 ± 3% | 34 ± 2% | – | – |
| O=C(O)c1ccc(NS(=O)(=O)c2ccc(Cl)cc2[N+](=O)[O-])cc1O [DSF085] | 0% | 36 ± 5% | – | – |
| COCCOc1ccc2c(C)c(CC(=O)Nc3ccc(C(=O)O)cc3)c(=O)oc2c1 [DSF046] | 0% | 0% | – | – |
| O=C(O)c1cccc2cc3c(C(=O)O)cccc3cc12 [DSF005] | 0% | 1 ± 4% | – | – |
| Cc1c(CC(=O)Nc2cccc(O)c2)c(=O)oc2c(C)c3oc4c(c3cc12)CCCC4 [DSF050] | 24 ± 4% | 32 ± 2% | – | – |

| SMILES | inhibition at 10 µM | inhibition at 50 µM | % inhibition @ 10 uM | % inhibition @ 50 uM |
| --- | --- | --- | --- | --- |
| CN(C)c1ccc(/C=C2/N=C(c3ccccc3)OC2=O)cc1 [DSF073] | 23 ± 1% | 36 ± 3% | – | – |
| COc1ccc(OC)c(NS(=O)(=O)c2ccc(Cl)cc2[N+](=O)[O-])c1 [DSF088] | 0% | 22 ± 3% | – | – |
| O=C(O)Cc1ccc(/N=C2/C(=O)Nc3ccc(Br)cc32)cc1 [DSF068] | 37 ± 5% | 56 ± 4% | – | – |
| COc1cccc(Nc2nc(O)c3cc(-c4cc(OC)cc(OC)c4)c(=O)oc3n2)c1 [DSF035] | 0% | 0% | – | – |
| O=C1Nc2ccccc2/C1=N\c1cccc(C(F)(F)F)c1 [DSF069] | 27 ± 5% | 56 ± 2% | – | – |
| Cc1c(CC(=O)Nc2ccc(NS(C)(=O)=O)cc2)c(=O)oc2c(C)c3oc4c(c3cc12)CCCC4 [DSF051] | 40 ± 1% | 50 ± 1% | – | – |
| Cc1cccc(C)c1NS(=O)(=O)c1ccc(CC(=O)O)cc1 [DSF083] | – | – | 36 ± 4% | 49 ± 3% |
| COc1ccc(OC)c(/N=C2/C(=O)Nc3ccc(Br)cc32)c1 [DSF070] | 20 ± 5% | 41 ± 1% | – | – |
| CC(NC(=O)C(NC(=O)OCc1ccccc1)C(C)C)C(=O)OCCCCCNc1ccc(NCCCCCO)c2c1C(=O)c1ccccc1C2=O (centres unmarked) [DSF013] | 0% | 0% | – | – |
| CC(NC(=O)C(NC(=O)OCc1ccccc1)C(C)C)C(=O)OCCCCCNc1ccc(NCCCCCOC(=O)C(C)NC(=O)C(NC(=O)OCc2ccccc2)C(C)C)c2c1C(=O)c1ccccc1C2=O (centres unmarked) [DSF012] | 0% | 20 ± 5% | – | – |
| O=C(NC(=S)Nc1cccc(Oc2ncc(Cl)cn2)c1)c1ccccc1 [DSF062] | 9 ± 3% | 21 ± 2% | – | – |
| O=C(O)c1ccc(-c2cc(-c3cccc(C(F)(F)F)c3)nc(O)n2)cc1 [DSF024] | 16 ± 1% | 5 ± 3% | – | – |
| O=C(O)c1ccc(-c2ccc(-c3ccccc3)cc2O)cc1 [DSF029] | 1 ± 4% | 0% | – | – |
| O=C(CN1CCCCC1)Nc1ccc(NC(=O)CN2CCCCC2)c2c1C(=O)c1c(O)ccc(O)c1C2=O [DSF019] | 35 ± 5% | 33 ± 1% | – | – |
| O=[N+]([O-])c1cc(Cl)ccc1S(=O)(=O)N1CCCCC1 [DSF090] | 12 ± 2% | 19 ± 1% | – | – |
| ClCc1c2ccccc2c(CCl)c2ccccc12 [DSF003] | 35 ± 5% | 50 ± 1% | – | – |
| COc1cccc(Nc2nc(O)c3cc(-c4c(Cl)cccc4Cl)c(=O)oc3n2)c1 [DSF034] | 14 ± 2% | 0% | – | – |
| CC(=O)Nc1ccc(/C=C2/N=C(c3cccc(C(=O)O)c3)OC2=O)cc1 [DSF071] | 0% | 0% | – | – |
| Cc1c(C)c2cc3c4c(oc3c(O)c2oc1=O)CCCC4 [DSF054] | 8 ± 4% | 46 ± 4% | – | – |
| O=C(O)Cc1ccc(/N=C2/C(=O)Nc3ccccc32)cc1 [DSF067] | 42 ± 5% | 42 ± 1% | – | – |
